Results from patent publication US10626103B2, “Inhibitor of lysine specific demethylase-1” (CELGENE QUANTICEL RESEARCH, INC., priority 2014, dated 2020).

Key:
full-length human LSD1 = full-length human LSD1 (Homo sapiens (Human), UniProt O60341); test: In vitro enzyme inhibition assay LSD-1 (TR-FRET); assay type: biochemical; details: H3K4me1-biotin peptide
Method: This assay determines the ability of a test compound to inhibit LSD1 demethylase activity.
The enzymatic assay of LSD1 activity is based on Time Resolved-Fluorescence Resonance Energy Transfer (TR-FRET) detection.
Plates were read by EnVision Multilabel Reader in TR-FRET mode (excitation at 320 nm, emission at 615 nm and 665 nm) after 1 hour incubation at room temperature.
The ability of the compounds disclosed herein to inhibit LSD1 activity was quantified and the respective IC50 value was determined.

[1] = system: CD11b expression in THP-1 (AML) cells; test: LSD1 CD11b cellular assay (flow cytometry); assay type: cell-based; details: Homo sapiens, 96 h, THP-1 cells, 4 days
Method: To analyze LSD1 inhibitor efficacy in cells, a CDL11b flow cytometry assay was performed. LSD1 inhibition induces CD11b expression in THP-1 (AML) cells which can be measured by flow cytometry. […] LSD 1 test compounds were serially diluted in DMSO. The dilutions were added to each well accordingly to a final concentration of 0.2% DMSO. The cells were incubated at 37 degrees Celsius in 5% CO2 for 4 days. 250 μL of each well was transferred to a well in a 96 well round bottom plate. The plate was centrifuged at 1200 rpm at 4 degrees Celsius in a Beckman Coulter Alegra 6KR centrifuge for 5 minutes. The media was removed leaving the cells at the bottom of the wells. The cells were washed in 100 μL cold HBSS (Hank's Balanced Salt Solution) plus 2% BSA (Bovine Serum Albumin) solution and centrifuged at 1200 rpm at 4 degrees Celsius for 5 minutes. The wash was removed. […] The cells were centrifuged and washed two times in 100 μl HBSS plus 2% BSA. After the final spin the cells were resuspended in 100 μL HBSS plus 2% BSA containing 1 ug/mL DAPI (4′,6-diamidino-2-phenylindole). The cells were then analyzed by flow cytometry in a BD FACSAria machine. Cells were analyzed for CD11b expression. The percent of CD11b expressing cells for each inhibitor concentration was used to determine an IC50 curve for each compound analyzed.

| Structure (SMILES) | IC50 (full-length human LSD1) [µM] | IC50 [1] [µM] |
| --- | --- | --- |
| Cc1c(C(=O)N2CC[C@H](N)C2)nc(-c2ccc(C#N)c(F)c2)n1-c1ccc2c(cnn2C)c1 [Example 24, 4-[4-[(3S)-3-aminopyrrolidine-1-carbonyl]-5-methyl-1-(1-methylindazol-5-yl)imidazol-2-yl]-2-fluorobenzonitrile] | < 0.1 | < 0.1 |
| Cn1cc2cc(-c3c(-c4ccc(C#N)c(F)c4)cc(C(=O)N[C@@H]4CCNC4)n3C)ccc2n1 [Example 30, N-((3R)pyrrolidin-3-yl)[4-(4-cyano-3-fluorophenyl)-1-methyl-5-(2-methyl(2H-indazol-5-yl))pyrrol-2-yl]carboxamide] | < 0.1 | < 0.1 |
| CN(CCN)C(=O)c1cc(-c2ccc(C#N)c(F)c2)c(-c2ccc3nn(C)cc3c2)n1C [Example 31, N-(2-aminoethyl)[4-(4-cyano-3-fluorophenyl)-1-methyl-5-(2-methyl(2H-indazol-5-yl))pyrrol-2-yl]-N-methylcarboxamide] | < 0.1 | < 0.1 |
| CNCCNC(=O)c1cc(-c2ccc(C#N)c(F)c2)c(-c2ccc3nn(C)cc3c2)n1C [Example 32, [4-(4-cyano-3-fluorophenyl)-1-methyl-5-(2-methyl(2H-indazol-5-yl))pyrrol-2-yl]-N-[2-(methylamino)ethyl]carboxamide] | < 0.1 | < 0.1 |
| Cn1cc2cc(-c3c(-c4ccc(C#N)c(F)c4)cc(C(=O)N4CCC[C@@H](N)C4)n3C[C@@H](O)CO)ccc2n1 [Example 38, 4-(5-((R)-3-aminopiperidine-1-carbonyl)-1-((R)-2,3-dihydroxypropyl)-2-(2-methyl-2H-indazol-5-yl)-1H-pyrrol-3-yl)-2-fluorobenzonitrile] | < 0.1 | < 0.1 |
| Cn1cc2cc(-c3c(-c4ccc(C#N)c(F)c4)cc(C(=O)NC[C@@H]4CCNC4)n3C)ccc2n1 [Example 40, N-[((3R)pyrrolidin-3-yl)methyl][4-(4-cyano-3-fluorophenyl)-1-methyl-5-(2-methyl(2H-indazol-5-yl))pyrrol-2-yl]carboxamide] | < 0.1 | < 0.1 |
| COc1ccc(-c2c(-c3ccc(C#N)c(F)c3)cc(C(=O)N3CCC[C@@H](N)C3)n2CCCC(N)=O)cc1 [Example 42, 4-{5-[((3R)-3-aminopiperidyl)carbonyl]-3-(4-cyano-3-fluorophenyl)-2-(4-methoxyphenyl)pyrrolyl} butanamide] | < 0.1 | < 0.1 |
| Cc1c(C(=O)N2CCC(N)CC2)nc(-c2ccc(C#N)c(F)c2)n1-c1ccc2nn(C)cc2c1 [Example 43, 4-[4-(4-Aminopiperidine-1-carbonyl)-5-methyl-1-(2-methylindazol-5-yl)imidazol-2-yl]-2-fluorobenzonitrile] | < 0.1 | 0.1 to 1 |
| Cc1c(C(=O)N(C)CCN)nc(-c2ccc(C#N)c(F)c2)n1-c1ccc2nn(C)cc2c1 [Example 44, N-(2-Aminoethyl)-2-(4-cyano-3-fluorophenyl)-N,5-dimethyl-1-(2-methylindazol-5-yl)imidazole-4-carboxamide] | < 0.1 | < 0.1 |
| Cc1c(C(=O)NC2CCNC2)nc(-c2ccc(C#N)c(F)c2)n1-c1ccc2nn(C)cc2c1 (centres unmarked) [Example 46, 2-(4-Cyano-3-fluorophenyl)-5-methyl-1-(2-methylindazol-5-yl)-N-pyrrolidin-3-ylimidazole-4-carboxamide] | < 0.1 | < 0.1 |
| Cc1c(C(=O)N2CCC[C@@H](N)C2)nc(-c2ccc(C#N)c(F)c2)n1-c1cc2cn(C)nc2cc1F [Example 47, 4-[4-[(3R)-3-Aminopiperidine-1-carbonyl]-1-(6-fluoro-2-methylindazol-5-yl)-5-methylimidazol-2-yl]-2-fluorobenzonitrile] | < 0.1 | < 0.1 |
| CN[C@H]1CCN(C(=O)c2nc(-c3ccc(C#N)c(F)c3)n(-c3cc(F)c4nn(C)cc4c3)c2C)C1 [Example 51, 2-Fluoro-4-[1-(7-fluoro-2-methylindazol-5-yl)-5-methyl-4-[(3S)-3-(methylamino)pyrrolidine-1-carbonyl]imidazol-2-yl]benzonitrile] | < 0.1 | < 0.1 |
| CN(C)[C@H]1CCN(C(=O)c2cn(-c3ccc4nn(C)c(Cl)c4c3)c(-c3ccc(C#N)c(F)c3)n2)C1 [Example 57, 4-[1-(3-Chloro-2-methylindazol-5-yl)-4-[(3S)-3-(dimethylamino)pyrrolidine-1-carbonyl]imidazol-2-yl]-2-fluorobenzonitrile] | < 0.1 | < 0.1 |
| CN(C)[C@H]1CCN(C(=O)c2nc(-c3ccc(C#N)c(F)c3)n(-c3ccc4nn(C)c(Cl)c4c3)c2F)C1 [Example 58, 4-[1-(3-Chloro-2-methylindazol-5-yl)-4-[(3S)-3-(dimethylamino)pyrrolidine-1-carbonyl]-5-fluoroimidazol-2-yl]-2-fluorobenzonitrile] | < 0.1 | < 0.1 |

Next, values leading:

| IC50 (full-length human LSD1) [µM] | IC50 [1] [µM] | Structure (SMILES) |
| --- | --- | --- |
| < 0.1 | < 0.1 | COc1ccc(-n2cc(C(=O)N3CC[C@H](N)C3)nc2-c2ccc(C#N)c(F)c2)cc1F [Example 20, 4-[4-[(3S)-3-aminopyrrolidine-1-carbonyl]-1-(3-fluoro-4-methoxyphenyl)imidazol-2-yl]-2-fluorobenzonitrile] |
| < 0.1 | < 0.1 | Cn1cc2cc(-c3c(-c4ccc(C#N)c(F)c4)cc(C(=O)N4CCC[C@@H](N)C4)n3C)ccc2n1 [Example 29, 4-{5-[((3R)-3-aminopiperidyl)carbonyl]-1-methyl-2-(2-methyl(2H-indazol-5-yl))pyrrol-3-yl}-2-fluorobenzenecarbonitrile] |
| < 0.1 | < 0.1 | Cn1cc2cc(-c3c(-c4ccc(C#N)c(F)c4)cc(C(=O)N4CCC[C@@H](N)C4)n3CCCO)ccc2n1 [Example 34, (R)-4-(5-(3-aminopiperidine-1-carbonyl)-1-(3-hydroxypropyl)-2-(2-methyl-2H-indazol-5-yl)-1H-pyrrol-3-yl)-2-fluorobenzonitrile] |
| < 0.1 | < 0.1 | Cn1cc2cc(-c3c(-c4ccc(C#N)c(F)c4)cc(C(=O)N4CCC[C@@H](N)C4)n3CCO)ccc2n1 [Example 35, (R)-4-(5-(3-aminopiperidine-1-carbonyl)-1-(2-hydroxyethyl)-2-(2-methyl-2H-indazol-5-yl)-1H-pyrrol-3-yl)-2-fluorobenzonitrile] |
| < 0.1 | < 0.1 | COCCn1c(C(=O)N2CCC[C@@H](N)C2)cc(-c2ccc(C#N)c(F)c2)c1-c1ccc2nn(C)cc2c1 [Example 36, (R)-4-(5-(3-aminopiperidine-1-carbonyl)-1-(2-methoxyethyl)-2-(2-methyl-2H-indazol-5-yl)-1H-pyrrol-3-yl)-2-fluorobenzonitrile] |
| < 0.1 | < 0.1 | Cn1cc2cc(-c3c(-c4ccc(C#N)c(F)c4)cc(C(=O)N4CCC[C@@H](N)C4)n3C[C@H](O)CO)ccc2n1 [Example 39, 4-(5-((R)-3-aminopiperidine-1-carbonyl)-1-((S)-2,3-dihydroxypropyl)-2-(2-methyl-2H-indazol-5-yl)-1H-pyrrol-3-yl)-2-fluorobenzonitrile] |
| < 0.1 | < 0.1 | Cc1c(C(=O)NC2CCCNC2)nc(-c2ccc(C#N)c(F)c2)n1-c1ccc2nn(C)cc2c1 (centres unmarked) [Example 45, 2-(4-Cyano-3-fluorophenyl)-5-methyl-1-(2-methylindazol-5-yl)-N-piperidin-3-ylimidazole-4-carboxamide] |
| < 0.1 | < 0.1 | Cc1c(C(=O)N2CC[C@H](N)C2)nc(-c2ccc(C#N)c(F)c2)n1-c1cc(F)c2nn(C)cc2c1 [Example 50, 4-[4-[(3S)-3-Aminopyrrolidine-1-carbonyl]-1-(7-fluoro-2-methylindazol-5-yl)-5-methylimidazol-2-yl]-2-fluorobenzonitrile] |
| < 0.1 | < 0.1 | Cc1c(C(=O)N[C@@H]2CCCN(C)C2)nc(-c2ccc(C#N)c(F)c2)n1-c1ccc2nn(C)c(Cl)c2c1 [Example 56, 1-(3-Chloro-2-methylindazol-5-yl)-2-(4-cyano-3-fluorophenyl)-5-methyl-N-[(3R)-1-methylpiperidin-3-yl]imidazole-4-carboxamide] |
| < 0.1 | < 0.1 | CN1CCC[C@@H](NC(=O)c2cn(-c3ccc4nn(C)c(Cl)c4c3)c(-c3ccc(C#N)c(F)c3)n2)C1 [Example 59, 1-(3-Chloro-2-methylindazol-5-yl)-2-(4-cyano-3-fluorophenyl)-N-[(3R)-1-methylpiperidin-3-yl]imidazole-4-carboxamide] |
| < 0.1 | < 0.1 | Cc1c(C(=O)N[C@@H]2CCCN(C)C2)nc(-c2ccc(C#N)c(F)c2)n1-c1ccc2nn(C)cc2c1 [Example 60, 2-(4-Cyano-3-fluorophenyl)-5-methyl-1-(2-methylindazol-5-yl)-N-[(3R)-1-methylpiperidin-3-yl]imidazole-4-carboxamide] |
